{"source": "patent US20220364056A1", "about": "“SHORT-CHAIN FATTY ACID PENTANOATE AS ENHANCER FOR CELLULAR THERAPY AND ANTI-TUMOR THERAPY” (PHILIPPS-UNIVERSITÄT MARBURG, priority 2019, published 2022)", "key": {"[1]": {"system": "CD8+ cytotoxic T lymphocytes (CTLs)", "experiment": "murine CTLs cultivated under suboptimal conditions with SCFAs; cytokines and effector molecules by flow cytometry and ELISA", "assay_type": "cell-based", "excerpt": "It is known that the glycolytic metabolic pathway promotes IFN-γ expression and T cell effector function. […] We next investigated if acetylation of H4 was increased at CTL-characteristic loci (Ifnγ, Tbx21 and Eomes) after treatment of CTLs with pentanoate. […] Due to the high level of heterogeneity and plasticity within T lymphocytes, we next investigated possible effects of pentanoate on other CD8^+ T cell subtypes. […] To gain further insight into possible therapeutic strategies, we next investigated the impact of pentanoate on human CD8^+ T lymphocytes.\n(§1) (A) Experimental design for the treatment of CTLs with the water-soluble fraction of intestinal content derived from SPF or GF mice. (B and C) Frequencies of IFN-γ- and TNF-α-producing CTLs treated with the extract from luminal content derived from indicated organs. Representative results of two experiments are shown (n=3). (D) ELISA was performed to measure the secretion of TNF-α by CLTs treated as shown in (A). (E) Quantitative measurement of total SCFA amounts in fecal samples of SPF and GF mice (n=5). (F and G) The percentage of IFN-γ^+ TNF-α^+ CTLs treated with the indicated SCFAs for three days (n=3, one of three independent experiments is shown). (H) The secretion of TNF-α from CTLs treated with SCFAs was determined by ELISA (n=3, one of two independent experiments is shown). (I) The fluorogenic HDAC assay was applied to measure the HDAC inhibitory activity of SCFAs on CTLs. The value for unstimulated CTLs was arbitrarily set to 1.0. Four independent experiments were performed. (J and K) Representative contour plots (J) and bar graphs (K) showing the frequency of IFN-γ+ and TNF-α+ cells after pentanoate (2 mM) or VPA (0.5 mM) administration. Three similar experiments were performed. (L and M) The frequency of Eomes- and T-bet-expressing CTLs treated with pentanoate (2 mM) or VPA (0.5 mM) for three days was analyzed by flow cytometry (n=4). (N) ChIP assay showing the acetylation of histone H4 at the promoter regions of Ifnγ and Eomes genes after 24 hours of treatment of CTLs with pentanoate. Data are from pooled chromatin of three mice.\nRepresentative histogram plots (A) and bar graphs (B) are showing the frequency of Annexin V^+ cells. Three similar experiments were performed. (C) Representative effector molecule staining of CD8^+ T cells polarized under suboptimal CTL-inducing conditions, treated with pentanoate or TSA (10 nM Sigma-Aldrich) in presence of 2-DG (1 mM, Sigma-Aldrich) or rapamycin (100 nM, Sigma-Aldrich) for 3 days. Three independent experiments were performed. (D) Western blot analysis of H3Ac and H4Ac in CD8^+ T cells treated with SCFAs for 3 days. (E) Pan-H4Ac ChIP qPCR analysis for Tbx21 promoter accessibility in pentanoate-treated CTLs. Data are from pooled chromatin of three mice. (F and G) CD8^+ T cells isolated from WT and Tbx21^−/− mice were polarized under suboptimal CTL-inducing conditions in presence of increasing pentanoate concentrations. Representative contour plots (F) and bar graphs (G) show the frequency of IFN-γ+ and IL-17A^+ cells. Two similar experiments were performed. […]"}, "HDAC": {"system": "HDAC", "experiment": "fluorogenic HDAC assay on CTL-derived cell lysates", "assay_type": "biochemical, murine", "settings": "unstimulated CTLs set to 1.0", "method": "as §1, with “(N) ChIP assay showing the acetylation of histone H4 at the promoter regions of Ifnγ and Eomes genes after 24 hours of treatment of CTLs with pentanoate. Data are from pooled chromatin of three mice.” left out"}, "B16OVA melanoma cells": {"system": "B16OVA melanoma cells", "experiment": "adoptive transfer of pretreated OT-I CTLs into mice bearing s.c. B16OVA tumors", "assay_type": "in vivo"}, "PancOVA cells": {"system": "PancOVA cells", "experiment": "adoptive transfer of pretreated OT-I CTLs into mice bearing s.c. PancOVA tumors", "assay_type": "in vivo", "excerpt": "We tested this hypothesis in two different subcutaneous (s.c.) tumor models. We injected s.c. B16OVA melanoma cells into CD45.2^+ mice and transferred either control or pentanoate-treated CD45.1^+ OT-I CTLs into recipient animals on day 5 after tumor injection. […] On day 10 after adoptive transfer of CTLs, we detected a higher number of pentanoate-treated cells expressing more effector cytokines TNF-α and IFN-γ in comparison to control OT-I CTLs in tumors, draining LNs and spleen (FIG. 2, E-G). Furthermore, the anti-tumor effects mediated by treatment of CTLs with pentanoate were tested in aggressive pancreatic tumors expressing OVA protein (OVA-expressing Panc02 cells, PancOVA). To this end, 1.5×10^6 PancOVA cells were injected s.c. into CD45.2^+ mice. […] One area of application is CAR therapy.\n(A) Experimental design for the role of SCFAs in promoting anti-tumor immunity. (B-D) After three days of pre-treatment with pentanoate, CD45.1^+ OVA-specific CTLs were transferred intraperitoneally (i.p.) into CD45.2^+ mice bearing 5-days old B16OVA tumors. Tumor volume and tumor mass were analyzed (n=3 mice per group, one of three independent experiments is shown). […]\nTumor weight was determined on day 23 post tumor inoculation. […]"}, "mTOR [2]": {"system": "mTOR", "experiment": "phosphorylation of mTOR and S6 in murine CTLs", "assay_type": "cell-based", "settings": "pentanoate 2.5 mM, three days", "method": "(§2) (A and B) CTLs were cultured in medium containing 1.0% FCS and treated with pentanoate (2.5 mM) for three days. Representative histogram plots and bar graphs indicate the phoshorylated levels of mTOR (A) and S6 ribosomal protein (B), respectively (n=3 pooled from three independent experiments). (C and D) Human CTLs were cultured in medium containing 1.0% serum and treated with indicated HDACi for three days. Representative histogram plots and bar graphs indicate the phoshorylated levels of mTOR (C) and S6 ribosomal protein (D), respectively (data points represent four individual healthy donors) (E) Measurement of extracellular acidification rate (ECAR) for in vitro generated murine CTLs cultured with or without 2.5 mM pentanoate for three days. ECAR was measured under basal conditions and in response to glucose (10 mM), oligomycin (2 μM), and 2-deoxy-glucose (2-DG, 100 mM). One of three independent experiments is shown."}, "mTOR [3]": {"system": "mTOR", "experiment": "phosphorylation of mTOR and S6 in human CTLs", "assay_type": "cell-based", "settings": "three days", "method": "as §2"}}, "data": [{"smiles": "CCCCC(=O)O", "note": "[pentanoate]", "values": [{"measurement": "frequencies of TNF-α+ IFN-γ+ cells", "setting": "[1]; CTLs, suboptimal conditions, SCFAs for three days", "result": "substantial increase"}, {"measurement": "secretion of TNF-α by CTLs", "setting": "[1]; ELISA, CTLs treated with SCFAs", "result": "substantial increase"}, {"measurement": "secretion of IL-2 by CTLs", "setting": "[1]; ELISA, indicated time points", "result": "robustly produced IL-2 in a prolonged manner"}, {"measurement": "production of IFN-γ by T-bet-deficient CTLs", "setting": "[1]; Tbx21-/- vs WT, increasing pentanoate concentrations", "result": "partially defective production"}, {"measurement": "expression of TNF-α and IFN-γ in CTLs", "setting": "[1]; pentanoate 2 mM or VPA 0.5 mM", "result": "potently enhanced"}, {"measurement": "CTL-related transcription factors T-bet and Eomes in CD8+ T cells", "setting": "[1]; pentanoate 2 mM or VPA 0.5 mM, three days", "result": "strongly induced"}, {"measurement": "reversal of the effect on granzyme B+IFN-γ+ cells by rapamycin", "setting": "[1]; rapamycin 100 nM co-treatment", "result": "could not be reversed"}, {"measurement": "percentage of CD25+IFN-γ+ cells in in vitro generated CTLs", "setting": "[1]; three days", "result": "strongly enhanced"}, {"measurement": "percentages of granzyme B+IFN-γ+ CD8+ T cells", "setting": "[1]; vs control CTLs, TSA 10 nM, 3 days", "result": "substantially enhanced"}, {"measurement": "HDAC activity of CTL-derived cell lysates", "setting": "HDAC", "result": "strong reduction of HDAC activity"}, {"measurement": "tumor volume and weight", "setting": "B16OVA melanoma cells; OT-I CTLs pretreated three days with pentanoate, transferred day 5 after tumor injection", "result": "decreased tumor volume and weight"}, {"measurement": "number of transferred cells expressing TNF-α and IFN-γ in tumors, draining LNs and spleen", "setting": "B16OVA melanoma cells; day 10 after adoptive transfer, vs control OT-I CTLs", "result": "higher number"}, {"measurement": "growth of PancOVA cells in recipient animals", "setting": "PancOVA cells; 7.5×10^5 pentanoate-treated OT-I CD8+ T lymphocytes", "result": "completely eliminate the growth"}, {"measurement": "persistence of transferred CTLs within draining LNs and spleen", "setting": "PancOVA cells; day 23 after tumor inoculation", "result": "persistence of pentanoate-treated CTLs with high IFN-γ production"}, {"measurement": "phosphorylation level of S6 ribosomal protein", "setting": "mTOR [2]", "result": "elevated the phosphorylation levels"}, {"measurement": "phosphorylation level of mTOR", "setting": "mTOR [2]", "result": "elevated the phosphorylation levels"}, {"measurement": "phosphorylation level of S6 ribosomal protein", "setting": "mTOR [3]", "result": "elevated the phosphorylation levels"}, {"measurement": "phosphorylation level of mTOR", "setting": "mTOR [3]", "result": "elevated the phosphorylation levels"}]}]}
